# Assay results taken from PubChem BioAssay (NCI).
# “And” between values parts separate entries of the source, which are not always exact repeats. Equal values may be shown once.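 Tested at 5 concentrations; 48 h exposure; 96-well plates; endpoints linearly interpolated, else capped at highest concentration. Abbreviation: GI50, concentration required for 50% inhibition of growth. TGI marks complete inhibition of growth.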
# Legend:
# Test in all cases: NCI tumour cell line growth inhibition, 48 h
# NCI-H23 lung = test system: NCI-H23 lung
# SN12K1 renal = test system: SN12K1 renal
# LOX IMVI melanoma = test system: LOX IMVI melanoma
# M14 melanoma = test system: M14 melanoma
# HOP-62 NSCLC = test system: HOP-62 NSCLC
# K-562 leukemia = test system: K-562 leukemia
# A549 NSCLC = test system: A549 NSCLC
# P388 leukemia = test system: P388 leukemia
# MALME-3M melanoma = test system: MALME-3M melanoma
# SF-268 CNS = test system: SF-268 CNS
# SF-295 CNS = test system: SF-295 CNS
# UACC-62 melanoma = test system: UACC-62 melanoma
# SNB-75 CNS = test system: SNB-75 CNS
# U251 CNS = test system: U251 CNS
# A498 renal = test system: A498 renal
# HCT-116 colon = test system: HCT-116 colon
# NCI-H460 lung = test system: NCI-H460 lung
# HOP-92 NSCLC = test system: HOP-92 NSCLC
# SN12C renal = test system: SN12C renal
# M19-MEL melanoma = test system: M19-MEL melanoma
# RXF 393 renal = test system: RXF 393 renal
# OVCAR-4 ovarian = test system: OVCAR-4 ovarian
# HCT-15 colon = test system: HCT-15 colon
# SF-539 CNS = test system: SF-539 CNS
# XF 498 CNS = test system: XF 498 CNS
# DMS 273 small cell lung = test system: DMS 273 small cell lung
# EKVX NSCLC = test system: EKVX NSCLC
# NCI/ADR-RES ovarian = test system: NCI/ADR-RES ovarian
# SW-620 colon = test system: SW-620 colon
# RPMI-8226 leukemia = test system: RPMI-8226 leukemia
# HL-60(TB) leukemia = test system: HL-60(TB) leukemia
# HOP-18 NSCLC = test system: HOP-18 NSCLC
# KM20L2 colon = test system: KM20L2 colon
# CCRF-CEM leukemia = test system: CCRF-CEM leukemia
# HCC-2998 colon = test system: HCC-2998 colon
# SK-MEL-5 melanoma = test system: SK-MEL-5 melanoma
# ACHN renal = test system: ACHN renal
# P388/ADR leukemia = test system: P388/ADR leukemia
# SK-OV-3 ovarian = test system: SK-OV-3 ovarian
# LXFL 529 NSCLC = test system: LXFL 529 NSCLC
# CAKI-1 renal = test system: CAKI-1 renal
# SK-MEL-2 melanoma = test system: SK-MEL-2 melanoma
# MCF7 breast = test system: MCF7 breast
# DMS 114 small cell lung = test system: DMS 114 small cell lung
# SR leukemia = test system: SR leukemia
# OVCAR-5 ovarian = test system: OVCAR-5 ovarian
# DLD-1 colon = test system: DLD-1 colon
# IGROV1 ovarian = test system: IGROV1 ovarian
# SK-MEL-28 melanoma = test system: SK-MEL-28 melanoma
# HT29 colon = test system: HT29 colon
# MOLT-4 leukemia = test system: MOLT-4 leukemia
# SNB-19 CNS = test system: SNB-19 CNS
# OVCAR-8 ovarian = test system: OVCAR-8 ovarian
# TK-10 renal = test system: TK-10 renal
# 786-0 renal = test system: 786-0 renal
# OVCAR-3 ovarian = test system: OVCAR-3 ovarian
# COLO 205 colon = test system: COLO 205 colon
compound,measurement,setting,value
CC1[C@@H]2CC=C3[C@H]4CCC5Cc6nc7c(nc6C[C@@]5(C)C4(O)CC(=O)[C@]32CO[C@]12OC(C)(C)CC2O)CC1CC[C@@H]2C3=C[C@H]4O[C@@]5(O[C@@](C)(CO)C[C@@H]5O)C(C)[C@@]4(O)[C@]3(C)[C@@H](O)CC2[C@]1(C)C7 (some centres undefined),GI50,NCI-H23 lung,0.71 nM and 2.24 nM
same,TGI,NCI-H23 lung,143 nM and 377 nM
same,TGI,SN12K1 renal,> 3600 nM
same,GI50,LOX IMVI melanoma,0.15 nM and 1.14 nM
same,GI50,M14 melanoma,0.135 nM
same,TGI,M14 melanoma,0.363 nM
same,GI50,HOP-62 NSCLC,0.104 nM and 0.36 nM
same,TGI,HOP-62 NSCLC,0.831 nM and 2.57 nM
same,GI50,K-562 leukemia,0.149 nM and 1.12 nM
same,TGI,K-562 leukemia,21 nM and 59.5 nM
same,GI50,A549 NSCLC,0.294 nM and 1.21 nM
same,TGI,A549 NSCLC,223 nM and 1120 nM
same,TGI,P388 leukemia,3.82 nM
same,GI50,MALME-3M melanoma,2.98 nM and 3.69 nM
same,TGI,MALME-3M melanoma,142 nM and 29.2 nM
same,GI50,SF-268 CNS,0.194 nM and 1.44 nM
same,TGI,SF-268 CNS,309 nM and 672 nM
same,GI50,SF-295 CNS,< 0.36 nM
same,TGI,SF-295 CNS,0.131 nM and < 0.36 nM
same,GI50,UACC-62 melanoma,0.142 nM and 0.422 nM
same,GI50,SNB-75 CNS,0.36 nM
same,GI50,U251 CNS,0.112 nM and 0.36 nM
same,TGI,U251 CNS,74.5 nM and 95.5 nM
same,GI50,A498 renal,0.396 nM
same,TGI,A498 renal,4.25 nM and 4.93 nM
same,TGI,HCT-116 colon,105 nM and 846 nM
same,GI50,NCI-H460 lung,0.125 nM and 0.36 nM
same,TGI,NCI-H460 lung,15.5 nM and 140 nM
same,GI50,HOP-92 NSCLC,0.104 nM and 0.36 nM
same,TGI,SN12C renal,> 3600 nM
same,GI50,M19-MEL melanoma,329 nM and 2050 nM
same,TGI,M19-MEL melanoma,> 3600 nM
same,GI50,RXF 393 renal,0.36 nM
same,TGI,RXF 393 renal,0.371 nM and 2.17 nM
same,TGI,OVCAR-4 ovarian,> 3600 nM
same,GI50,HCT-15 colon,2.34 nM and 12.7 nM
same,TGI,HCT-15 colon,73.7 nM and 589 nM
same,GI50,SF-539 CNS,0.36 nM
same,TGI,XF 498 CNS,256 nM
same,GI50,DMS 273 small cell lung,0.36 nM
same,GI50,EKVX NSCLC,6.15 nM and 9.96 nM
same,TGI,EKVX NSCLC,152 nM and 814 nM
same,TGI,NCI/ADR-RES ovarian,> 3600 nM
same,GI50,SW-620 colon,0.172 nM and 1.19 nM
same,GI50,RPMI-8226 leukemia,< 0.36 nM
same,TGI,RPMI-8226 leukemia,0.322 nM and < 0.36 nM
same,GI50,HL-60(TB) leukemia,0.36 nM
same,TGI,HOP-18 NSCLC,> 3600 nM
same,GI50,KM20L2 colon,0.664 nM and 2.02 nM
same,TGI,KM20L2 colon,70.4 nM and 67.5 nM
same,GI50,CCRF-CEM leukemia,0.126 nM and 0.441 nM
same,TGI,CCRF-CEM leukemia,7.23 nM and 63.8 nM
same,GI50,HCC-2998 colon,321 nM
same,TGI,HCC-2998 colon,> 3600 nM
same,GI50,SK-MEL-5 melanoma,0.717 nM and 6.38 nM
same,GI50,ACHN renal,2.57 nM
same,TGI,ACHN renal,381 nM
same,TGI,P388/ADR leukemia,379 nM
same,GI50,SK-OV-3 ovarian,0.461 nM and 2.49 nM
same,GI50,LXFL 529 NSCLC,0.139 nM
same,TGI,LXFL 529 NSCLC,0.387 nM
same,GI50,CAKI-1 renal,0.573 nM and 4.63 nM
same,TGI,CAKI-1 renal,365 nM and > 3600 nM
same,GI50,SK-MEL-2 melanoma,0.29 nM and 1.17 nM
same,TGI,SK-MEL-2 melanoma,16.4 nM and 29.4 nM
same,TGI,MCF7 breast,441 nM
same,GI50,DMS 114 small cell lung,0.367 nM
same,GI50,SR leukemia,0.155 nM
same,TGI,SR leukemia,82.1 nM
same,GI50,OVCAR-5 ovarian,14.2 nM and 7.34 nM
same,TGI,OVCAR-5 ovarian,426 nM and 118 nM
same,GI50,DLD-1 colon,71.2 nM and 86.6 nM
same,TGI,DLD-1 colon,874 nM and > 3600 nM
same,GI50,IGROV1 ovarian,2.58 nM and 4.9 nM
same,TGI,IGROV1 ovarian,> 3600 nM
same,GI50,SK-MEL-28 melanoma,0.236 nM
same,TGI,SK-MEL-28 melanoma,2.01 nM
same,GI50,HT29 colon,0.918 nM and 1.23 nM
same,TGI,HT29 colon,48.6 nM and 62.3 nM
same,GI50,MOLT-4 leukemia,0.12 nM and 0.36 nM
same,TGI,MOLT-4 leukemia,0.159 nM and 1.14 nM
same,GI50,SNB-19 CNS,2.41 nM and 16.4 nM
same,TGI,SNB-19 CNS,393 nM and > 3600 nM
same,GI50,OVCAR-8 ovarian,198 nM
same,TGI,TK-10 renal,307 nM
same,GI50,786-0 renal,0.142 nM
same,TGI,786-0 renal,44.6 nM
same,TGI,OVCAR-3 ovarian,> 3600 nM
same,TGI,COLO 205 colon,6.58 nM and 64.4 nM
